According to ChEMBL document CHEMBL3526141, “Characterization of human liver enzymes involved in the biotransformation of boceprevir, a hepatitis C virus protease inhibitor” (Drug Metab Dispos, 2011):

Tests used:
Liver cytosol [1] = experiment: Drug metabolism in human liver cytosol at 20 uM assessed as (1R,2S,5S)-N-((2R,3R)-4-amino-1-cyclobutyl-3-hydroxy-4-oxobutan-2-yl)-3-((S)-2-(3-tert-butylureido)-3,3-dimethylbutanoyl)-6,6-dimethyl-3-azabicyclo[3.1.0]hexane-2-carboxamide formation at 20 uM after 60 mins in presence of AKR inhibitor ibuprofen by LC-MS/MS/FSA method; assay type: ADME; conditions: 1 h
Liver cytosol [2] = experiment: (§1) Drug metabolism in human liver cytosol at 20 uM assessed as (1R,2S,5S)-N-((2S,3R)-4-amino-1-cyclobutyl-3-hydroxy-4-oxobutan-2-yl)-3-((S)-2-(3-tert-butylureido)-3,3-dimethylbutanoyl)-6,6-dimethyl-3-azabicyclo[3.1.0]hexane-2-carboxamide formation in presence of BNPP by LC-MS/MS/FSA method; assay type: ADME
Liver cytosol [3] = experiment: as §1, with “formation at 20 uM after 60 mins” for “formation”, “pre-incubation with ritonavir” for “BNPP”; assay type: ADME; conditions: 1 h
[4] = biological target: T1, Aldo-keto reductase family 1 member C3 (Homo sapiens, UniProt P42330); experiment: Activity of human recombinant AKR1C3 expressed in HEK293 cells assessed as (1R,2S,5S)-N-((2S,3R)-4-amino-1-cyclobutyl-3-hydroxy-4-oxobutan-2-yl)-3-((S)-2-(3-tert-butylureido)-3,3-dimethylbutanoyl)-6,6-dimethyl-3-azabicyclo[3.1.0]hexane-2-carboxamide formation after 120 mins in presence of NADPH by LC-MS/MS/FSA method; assay type: ADME, cell-based; conditions: hek293, 2 h
T1 sequence (P42330 whole entry): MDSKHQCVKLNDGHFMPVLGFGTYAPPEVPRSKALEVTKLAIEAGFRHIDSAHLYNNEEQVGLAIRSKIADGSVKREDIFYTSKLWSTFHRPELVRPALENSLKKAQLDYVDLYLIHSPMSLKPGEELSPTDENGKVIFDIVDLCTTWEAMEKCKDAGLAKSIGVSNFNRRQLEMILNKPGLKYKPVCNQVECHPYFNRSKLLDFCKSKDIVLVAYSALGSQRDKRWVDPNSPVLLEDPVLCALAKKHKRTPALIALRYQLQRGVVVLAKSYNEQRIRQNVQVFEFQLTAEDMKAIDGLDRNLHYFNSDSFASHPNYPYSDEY

Liver cytosol [5] = experiment: Drug metabolism in human liver cytosol at 20 uM assessed as (1R,2S,5S)-N-((2S,3R)-4-amino-1-cyclobutyl-3-hydroxy-4-oxobutan-2-yl)-3-((S)-2-(3-tert-butylureido)-3,3-dimethylbutanoyl)-6,6-dimethyl-3-azabicyclo[3.1.0]hexane-2-carboxamide formation in presence of allopurinol by LC-MS/MS/FSA method; assay type: ADME
Liver cytosol [6] = experiment: (§2) Drug metabolism in human liver cytosol at 20 uM assessed as (1R,2S,5S)-N-((2S,3R)-4-amino-1-cyclobutyl-3-hydroxy-4-oxobutan-2-yl)-3-((S)-2-(3-tert-butylureido)-3,3-dimethylbutanoyl)-6,6-dimethyl-3-azabicyclo[3.1.0]hexane-2-carboxamide formation at 20 uM after 60 mins in presence of AKR inhibitor ibuprofen by LC-MS/MS/FSA method; assay type: ADME; conditions: 1 h
Liver cytosol [7] = experiment: as §2, with “ketoconazole” for “AKR inhibitor ibuprofen”; assay type: ADME; conditions: 1 h
Liver cytosol [8] = experiment: Drug metabolism in human liver cytosol at 20 uM assessed as (1R,2S,5S)-N-((2S,3R)-4-amino-1-cyclobutyl-3-hydroxy-4-oxobutan-2-yl)-3-((S)-2-(3-tert-butylureido)-3,3-dimethylbutanoyl)-6,6-dimethyl-3-azabicyclo[3.1.0]hexane-2-carboxamide formation in presence of pargyline by LC-MS/MS/FSA method; assay type: ADME
Liver cytosol [9] = experiment: Drug metabolism in human liver cytosol at 20 uM assessed as (1R,2S,5S)-N-((2S,3R)-4-amino-1-cyclobutyl-3-hydroxy-4-oxobutan-2-yl)-3-((S)-2-(3-tert-butylureido)-3,3-dimethylbutanoyl)-6,6-dimethyl-3-azabicyclo[3.1.0]hexane-2-carboxamide formation in presence of flufenamic acid by LC-MS/MS/FSA method; assay type: ADME
Liver cytosol [10] = experiment: Drug metabolism in human liver cytosol at 20 uM assessed as (1R,2S,5S)-N-((2S,3R)-4-amino-1-cyclobutyl-3-hydroxy-4-oxobutan-2-yl)-3-((S)-2-(3-tert-butylureido)-3,3-dimethylbutanoyl)-6,6-dimethyl-3-azabicyclo[3.1.0]hexane-2-carboxamide formation in presence of quercetin by LC-MS/MS/FSA method; assay type: ADME
Liver cytosol [11] = experiment: as §2, with “diflunisal” for “ibuprofen”; assay type: ADME; conditions: 1 h
[12] = biological target: T2, Aldo-keto reductase family 1 member C2 (Homo sapiens, UniProt P52895); experiment: Activity of human recombinant AKR1C2 expressed in HEK293 cells assessed as (1R,2S,5S)-N-((2R,3R)-4-amino-1-cyclobutyl-3-hydroxy-4-oxobutan-2-yl)-3-((S)-2-(3-tert-butylureido)-3,3-dimethylbutanoyl)-6,6-dimethyl-3-azabicyclo[3.1.0]hexane-2-carboxamide formation at 20 uM after 120 mins in presence of NADPH by LC-MS/MS/FSA method; assay type: ADME, cell-based; conditions: hek293, 2 h
T2 sequence (P52895 whole entry): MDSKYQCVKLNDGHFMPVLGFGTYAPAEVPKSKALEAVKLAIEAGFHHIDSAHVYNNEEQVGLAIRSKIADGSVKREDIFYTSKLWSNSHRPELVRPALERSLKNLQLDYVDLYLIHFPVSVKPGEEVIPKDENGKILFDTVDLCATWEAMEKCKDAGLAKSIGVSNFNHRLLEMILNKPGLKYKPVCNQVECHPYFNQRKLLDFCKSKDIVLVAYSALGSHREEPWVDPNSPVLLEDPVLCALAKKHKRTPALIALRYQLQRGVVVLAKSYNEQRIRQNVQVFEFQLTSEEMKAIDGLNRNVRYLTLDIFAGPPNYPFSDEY

Liver cytosol [13] = experiment: Drug metabolism in human liver cytosol treated with 20 uM [14C]SCH 534128 assessed as 100 uM diazepam-mediated inhibition of metabolite formation LC-MS/MS/FSA method; assay type: ADME, tissue-based; design: interact cpd dose 100 uM
[14] = biological target: T2, Aldo-keto reductase family 1 member C2; experiment: Drug metabolism in human recombinant AKR1C2 expressing HEK293 cells treated with 20 uM boceprevir assessed as 100 uM diazepam-mediated inhibition of AKR1C2-mediated metabolite formation after 120 mins in presence of NADPH by LC-MS/MS/FSA method; assay type: ADME, cell-based; design: interact cpd dose 100 uM; conditions: hek293, 2 h
[15] = Drug metabolism in human liver mitochondria treated with 20 uM assessed as compound formation in presence of NADPH generating system by LC-MS/MS/FSA method; assay type: ADME
[16] = biological target: T1, Aldo-keto reductase family 1 member C3; experiment: Drug metabolism in human recombinant […] HEK293 cells treated with 20 uM boceprevir assessed as 1 mM ibuprofen-mediated inhibition of AKR1C3-mediated metabolite formation after 120 mins in presence of NADPH by LC-MS/MS/FSA method; assay type: ADME, cell-based; design: interact cpd dose 1 mM; conditions: hek293, 2 h
[17] = Drug metabolism in human liver S9 fraction treated with 20 uM assessed as compound formation in presence of NADPH generating system by LC-MS/MS/FSA method; assay type: ADME, subcellular
[18] = biological target: T2, Aldo-keto reductase family 1 member C2; experiment: Drug metabolism in human recombinant AKR1C2 expressing HEK293 cells treated with 20 uM boceprevir assessed as 100 uM flufenamic acid-mediated inhibition of AKR1C2-mediated metabolite formation after 120 mins in presence of NADPH by LC-MS/MS/FSA method; assay type: ADME, cell-based; design: interact cpd dose 100 uM; conditions: hek293, 2 h
[19] = biological target: T1, Aldo-keto reductase family 1 member C3; experiment: Drug metabolism in human recombinant […] HEK293 cells treated with 20 uM boceprevir assessed as 100 uM diazepam-mediated inhibition of AKR1C3-mediated metabolite formation after 120 mins in presence of NADPH by LC-MS/MS/FSA method; assay type: ADME, cell-based; design: interact cpd dose 100 uM; conditions: hek293, 2 h
Liver cytosol [20] = experiment: Drug metabolism in human liver cytosol treated with 20 uM assessed as compound formation in presence of NADPH generating system by LC-MS/MS/FSA method; assay type: ADME

For `CC(C)(C)NC(=O)N[C@H](C(=O)N1C[C@H]2[C@@H]([C@H]1C(=O)N[C@H](CC1CCC1)C(=O)C(N)=O)C2(C)C)C(C)(C)C`, which Compound recovery (Liver cytosol [1]) is on record?
Its Compound recovery is “metabolite_not_detected”.

With `CC(C)(C)NC(=O)N[C@H](C(=O)N1C[C@H]2[C@@H]([C@H]1C(=O)NC(CC1CCC1)C(=O)C(N)=O)C2(C)C)C(C)(C)C` (stereo not given in full) [BOCEPREVIR] as the compound, how does the Compound recovery (Liver cytosol [2]) read?
The Compound recovery was “metabolite_not_detected”.

What about the Compound recovery (Liver cytosol [3]) of the same compound?
The Compound recovery was “metabolite_detected”.

What about the Km [4] of the same compound?
Its Km is 43.5 µM.

What about the Compound recovery (Liver cytosol [5]) of the same compound?
Its Compound recovery is “metabolite_detected”.

What about the Compound recovery (Liver cytosol [6]) of the same compound?
The Compound recovery was “metabolite_not_detected”.

And the Compound recovery (Liver cytosol [7])?
The Compound recovery was “metabolite_detected”.

And the Compound recovery (Liver cytosol [8])?
The Compound recovery was “metabolite_detected”.

And the Compound recovery (Liver cytosol [9])?
Its Compound recovery is “metabolite_not_detected”.

What about the Compound recovery (Liver cytosol [10]) of the same compound?
The Compound recovery was “metabolite_not_detected”.

What about the Compound recovery (Liver cytosol [11]) of the same compound?
Its Compound recovery is “metabolite_not_detected”.

What about the Compound recovery [12] of the same compound?
Its Compound recovery is “metabolite_detected”.

Which “inhibition (INH)” value (Liver cytosol [13]) does the source give for `CC(C)(C)NC(=O)N[C@H](C(=O)N1C[C@H]2[C@@H]([C@H]1C(=O)N[C@@H](CC1CCC1)[C@@H](O)C(N)=O)C2(C)C)C(C)(C)C` here?
Its value is 72.9%.

And the “inhibition (INH)” value [14]?
Its value is greater than 89%.

What about the Compound recovery [15] of the same compound?
The Compound recovery was 7%.

What about the “inhibition (INH)” value [16] of the same compound?
Its value is 55%.

What about the Compound recovery [17] of the same compound?
Its Compound recovery is 28%.

And the “inhibition (INH)” value [18]?
The value was greater than 89%.

And the “inhibition (INH)” value [19]?
Its value is 80%.

What about the Compound recovery (Liver cytosol [20]) of the same compound?
Its Compound recovery is 68%.
